Test results taken from US12171766B2, “Methods of treating patients suffering from brain injury and methods of increasing the value of the extended Glasgow Outcome Scale of patients suffering from brain injury” (VERINOS OPERATIONS GMBH, priority 2021, dated 2024).

Test: NOSTRA phase III trial: exposure control (pharmacokinetics), samples after end of infusion and 12 hours after end of infusion
Type: in vivo, human
Conditions: TBI patients
Protocol: An exposure control was performed with samples collected after end of infusion and 12 hours after end of infusion. Due to the high sensibility of Ronopterin to oxidation, no utilizable values could be obtained for Ronopterin and, therefore, the first metabolite, 4-amino-dihydrobiopterin, was used as a surrogate. The mean absolute concentration for the first metabolite of Ronopterin was 1071 ng/mL at the end of the infusion and 476 ng/mL 12 hours later (56% elimination). The mean absolute value for the second Ronopterin metabolite was 52 ng/mL at the end of the infusion and 37 ng/mL 12 hours after end of infusion.

[1] = Ronopterin 17 mg/kg infused for 48 hours

## C[C@H](O)[C@H](O)C1=Nc2c(N)nc(N)nc2NC1 [4-amino-dihydrobiopterin]
  elimination within 12 hours after end of infusion: 56%
[1]
  mean absolute concentration 12 hours after end of infusion: 476 ng/mL
  mean absolute concentration at the end of the infusion: 1071 ng/mL
